In patent publication US20240254121A1, “ALKYLAMIDE SUBSTITUTED, ANNULATED IMIDAZOLES AND USE THEREOF AS INSECTICIDES” (Bayer Aktiengesellschaft, priority 2021, published 2024):

Assays:
Format in all cases: in vivo
[1] = test system: fall armyworm larvae (Spodoptera frugiperda); test: Spodoptera frugiperda spray test; settings: 168 h, maize leaf sections, after 7 days
Method: Spodoptera frugiperda—Spray Test • Solvent: 78.0 parts by weight acetone • 1.5 parts by weight dimethylformamide • Emulsifier: alkylarylpolyglycol ether
(§1) To produce a suitable preparation of active compound, 1 part by weight of active compound is mixed with the stated amount of solvents and is diluted with water, containing an emulsifier concentration of 1000 ppm, to the desired concentration. Further test concentrations are prepared by dilution with emulsifier containing water.
Maize (Zea mays) leaf sections are sprayed with a preparation of the active ingredient of the desired concentration. Once dry, the leaf sections are infested with fall armyworm larvae (Spodoptera frugiperda).
After 7 days mortality in % is determined. 100% means all caterpillars have been killed and 0% means none of the caterpillars have been killed.

[2] = test system: larvae of the banded cucumber beetle (Diabrotica balteata); test: Diabrotica balteata spray test; settings: 168 h, 100 g/ha (=32 μg/well), wheat seeds, after 7 days, read-out: efficacy (seedling growth)
Method: Diabrotica Balteata—Spray Test
• Solvent: 78.0 Parts by Weight of Acetone • 1.5 parts by weight of dimethylformamide • Emulsifier: Alkylarylpolyglycol Ether
as §1, with “solvent,” for “solvents”, “and the concentrate” for “and”
Soaked wheat seeds (Triticum aestivum) are placed in a multiple well plate filled with agar and some water and are incubated for 1 day to germinate (5 seeds per well). The germinated wheat seeds are sprayed with a test solution containing the desired concentration of the active ingredient. Afterwards each unit is infected with 10-20 larvae of the banded cucumber beetle (Diabrotica balteata).
After 7 days efficacy in % is determined. 100% means all the seedlings have grown up like in the untreated, uninfected control; 0% means none of the seedlings have grown.

[3] = test system: larvae of the southern green stink bug (Nezara viridula); test: Nezara viridula spray test; settings: 96 h, barley plants, after 4 days
Method: Nezara viridula—Spray Test • Solvent: 78.0 parts by weight of acetone • 1.5 parts by weight of dimethylformamide • Emulsifier: alkylarylpolyglycol ether
as §1, with “solvent,” for “solvents”, “and the concentrate” for “and”
Barley plants (Hordeum vulgare) are sprayed with a test solution containing the desired concentration of the active ingredient and are infested with larvae of the southern green stink bug (Nezara viridula).
After 4 days mortality in % is determined. 100% means all the stink bugs have been killed; 0% means none of the stink bugs have been killed.

[4] = test system: cotton aphid (Aphis gossypii); test: Aphis gossypii oral test; settings: 120 h, after 5 days
Method: Aphis gossypii—Oral Test • Solvent: 100 Parts by Weight Acetone
(§2) To produce a suitable preparation of active compound, 1 part by weight of active compound is mixed with the stated amount of solvent, and the concentrate is diluted with water to the desired concentration.
(§3) 50 μL compound solution is filled in microtiter plates and 150 μL IPL41 insect medium (33%+15% sugar) is added to obtain a total volume of 200 μL per well. Afterwards the plates are sealed with parafilm through which a mixed population of the cotton aphid (Aphis gossypii) can suck on the compound preparation.
(§4) After 5 days mortality in % is determined. 100% means all aphids have been killed and 0% means none of the aphids have been killed.

[5] = test system: green peach aphid (Myzus persicae); test: Myzus persicae oral test; settings: 120 h, after 5 days
Method: Myzus persicae—Oral Test • Solvent: 100 parts by weight acetone
as §2
as §3, with “green peach” for “cotton”, “(Myzus persicae)” for “(Aphis gossypii)”
as §4

[6] = test system: adult mosquitoes Culex quinquefasciatus strain P00; test: Culex quinquefasciatus test (CULXFA surface treatment & contact assay); settings: 24 hours after contact, read-out: efficacy (mortality); for mortality at 4 mg/m2: surface concentration 4 mg/m^2, 30 minutes exposure
Method: Culex quinquefasciatus Test (CULXFA Surface Treatment & Contact Assay) • Solvent: Aceton+2000 ppm rapeseed oil methyl ester (RME)
(§5) In order to produce a sufficient, active ingredient containing solution it is necessary to solve the test compound in the solvent-mix (acetone at 2 mg/ml/RME 2,000 ppm). This solution is pipetted onto a glazed tile and after evaporation of the acetone, adult mosquitoes of the species Culex quinquefasciatus strain P00 are placed onto the dried surface. The exposure time is 30 minutes. Mortality in percent (%) is determined 24 hours after contact of the insects to the treated surface. 100% mortality means that all tested insects are dead, whereas 0% means that no insect died.

[7] = test system: adult mosquitoes Aedes aegypti strain MONHEIM; test: Aedes aegypti test (AEDSAE surface treatment & contact assay); settings: 24 hours after contact, read-out: efficacy (mortality); for mortality at 4 mg/m2: surface concentration 4 mg/m^2, 30 minutes exposure; for mortality at 20 mg/m2: surface concentration 20 mg/m^2, 30 minutes exposure
Method: Aedes aegypti Test (AEDSAE Surface Treatment & Contact Assay) • Solvent: Aceton+2000 ppm rapeseed oil methyl ester (RME)
as §5, with “2000” for “2,000”, “Aedes aegypti” for “Culex quinquefasciatus”, “MONHEIM” for “P00”

[8] = test system: adult flies Musca domestica strain WHO-N; test: Musca domestica test (MUSCDO surface treatment & contact assay); settings: 24 hours after contact, read-out: efficacy (mortality); for mortality at 4 mg/m2: surface concentration 4 mg/m^2, 30 minutes exposure; for mortality at 20 mg/m2: surface concentration 20 mg/m^2, 30 minutes exposure
Method: Musca domestica Test (MUSCDO Surface Treatment & Contact Assay) • Solvent: Aceton+2000 ppm rapeseed oil methyl ester (RME)
as §5, with “2000” for “2,000”, “flies” for “mosquitoes”, “Musca domestica” for “Culex quinquefasciatus”, “WHO-N” for “P00”

[9] = test system: cattle tick larvae (Rhipicephalus microplus); test: Rhipicephalus (Boophilus) microplus in-vitro contact test, larval cattle tick (strain Parkhurst, resistant against synthetic pyrethroids); settings: 1 μg/cm^2 (=100 g/ha), after 48 hours, read-out: efficacy (larvae dead or moribund)
Method: Rhipicephalus (Boophilus) Microplus—In-Vitro Contact Tests Larval Cattle Tick (Strain Parkhurst, Resistant Against Synthetic Pyrethroids)
9 mg compound is solved in 1 mL acetone and diluted with acetone to the desired concentration. 250 μL of the test solution is filled in 25 mL glass test tubes and homogeneously distributed on the inner walls by rotation and tilting on a shaking device (2 h at 30 rpm). With a compound concentration of 900 ppm, an inner surface of 44.7 cm^2 and a homogeneous distribution, a dose of 5 μg/cm^2 is achieved.
After the solvent has evaporated, each test tube is filled with 20-50 cattle tick larvae (Rhipicephalus microplus), closed with a perforated lid and incubated in a horizontal position at 85% relative humidity and 27° C. in an incubator. After 48 hours efficacy is determined. The larvae are patted on the ground of the tubes and negative geotactic behavior is recorded.
An efficacy of 100% means all larvae are dead or moribund; 0% means no larvae are dead or moribund.

Compound `Cc1ccc2nc(C(C)NC(=O)c3cc(OC(F)(F)F)cc(S(C)(=O)=O)c3)n(-c3ccc(C#N)cn3)c2n1` (centres unmarked) [Example I-23] has a mortality at 100 g/ha [1] of 100%.

`CC(NC(=O)c1cc(Cl)cc(OC(F)(F)F)c1)c1nc2cc(F)cnc2n1-c1ccc(C#N)cn1` (centres unmarked) [Example I-34] gave a pest or weed control at 32 µg/disc, 100 g/ha [2] of 100% and a mortality at 100 g/ha [1] of 100%.

Compound `CC(NC(=O)c1cc(Br)cc(OC(F)(F)F)c1)c1nc2cccnc2n1-c1ccc(C#N)cn1` (centres unmarked) [Example I-41] has a pest or weed control at 32 µg/disc, 100 g/ha [2] of 100% and a mortality at 100 g/ha [1] of 100%.

`CC(NC(=O)c1cc(C(F)(F)F)cc(C(F)(F)F)c1)c1nc2cccnc2n1-c1ccc(C(N)=O)cn1` (centres unmarked) [Example I-30] showed a mortality at 500 g/ha [3] of 100%.

For `CC(NC(=O)c1cc(C(F)(F)F)cc(C(F)(F)F)c1)c1nc2cnccc2n1-c1ccc(Cl)cn1` (centres unmarked) [Example I-39, N-[1-[1-(5-chloro-2-pyridyl)imidazo[4,5-c]pyridin-2-yl]ethyl]-3,5-bis(trifluoromethyl)benzamide], the pest or weed control at 32 µg/disc, 100 g/ha [2] was 100% and the mortality at 500 g/ha [3] was 100%.

`Cc1ccc2nc(C(C)NC(=O)c3cc(Cl)cc(OC(F)(F)F)c3)n(-c3ccc(C#N)cn3)c2n1` (centres unmarked) [Example I-20] gave a mortality at 100 g/ha [1] of 100%.

`CC(NC(=O)c1cc(OC(F)(F)F)cc(S(=O)(=O)C(F)F)c1)c1nc2cccnc2n1-c1ccc(C#N)cn1` (centres unmarked) [Example I-36] was tested, and the pest or weed control at 32 µg/disc, 100 g/ha [2] was 100% and the mortality at 100 g/ha [1] was 100%.

With `CC(NC(=O)c1cc(OC(F)(F)F)cc(S(C)(=O)=O)c1)c1nc2cccnc2n1-c1ccc(C(=O)N(C)C)cn1` (centres unmarked) [Example I-29] the mortality at 500 g/ha [3] was 90%.

Work on `CC(NC(=O)c1cc(C(F)F)cc(C(F)F)c1)c1nc2cccnc2n1-c1ccc(C#N)cn1` (centres unmarked) [Example I-44] yielded a mortality at 100 g/ha [1] of 83%.

`COC(=O)c1ccc(-n2c(C(C)NC(=O)c3cc(OC(F)(F)F)cc(S(C)(=O)=O)c3)nc3cccnc32)nc1` (centres unmarked) [Example I-24] showed a mortality at 100 ppm [4] of 100%, a mortality at 20 ppm [5] of 100% and a mortality at 4 mg/m2 [6] of 80 to 100%. It also gave a mortality at 20 mg/m2 ([6]; surface concentration 20 mg/m^2, 30 minutes exposure) of 80 to 100%, a mortality at 4 mg/m2 [7] of 80 to 100% and a mortality at 20 mg/m2 [7] of 80 to 100%.

For `C[C@H](NC(=O)c1cc(C(F)(F)F)cc(C(F)(F)F)c1)c1nc2ncccc2n1-c1ccc(C#N)cn1` [Example I-32], the mortality at 100 g/ha [1] was 100%.

`C[C@H](NC(=O)c1cc(OC(F)(F)F)cc(OC(F)(F)F)c1)c1nc2cccnc2n1-c1ccc(C#N)cn1` [Example I-16] was tested, and the pest or weed control at 32 µg/disc, 100 g/ha [2] was 100%, the mortality at 100 g/ha [1] was 100% and the mortality at 4 mg/m2 [8] was 80 to 100%. It also gave a mortality at 20 mg/m2 [8] of 80 to 100%, a mortality at 4 mg/m2 [7] of 80 to 100% and a mortality at 20 mg/m2 [7] of 80 to 100%. The pest or weed control at 1 µg/cm2, 100 g/ha [9] was 100%.

`CC(NC(=O)c1cc(Cl)cc(S(C)(=O)=O)c1)c1nc2cccnc2n1-c1ccc(Cl)cn1` (centres unmarked) [Example I-10] was tested, and the mortality at 100 ppm [4] was 100%, the mortality at 20 ppm [5] was 100% and the mortality at 500 g/ha [3] was 100%. The mortality at 100 g/ha [1] was 100%, the mortality at 4 mg/m2 [6] was 80 to 100% and the mortality at 4 mg/m2 [7] was 80 to 100%. The mortality at 20 mg/m2 [7] was 80 to 100%.

With `CC(NC(=O)c1cc(OC(F)(F)F)cc(C2(C#N)CC2)c1)c1nc2cccnc2n1-c1ccc(Cl)cn1` (centres unmarked) [Example I-11] the pest or weed control at 32 µg/disc, 100 g/ha [2] was 100%, the mortality at 100 g/ha [1] was 100% and the mortality at 4 mg/m2 [8] was 80 to 100%. For the same compound, the mortality at 20 mg/m2 [8] was 80 to 100%, the mortality at 20 mg/m2 [7] was 80 to 100% and the pest or weed control at 1 µg/cm2, 100 g/ha [9] was 90%.

With `CNC(=O)c1ccc(-n2c(C(C)NC(=O)c3cc(OC(F)(F)F)cc(S(C)(=O)=O)c3)nc3cccnc32)nc1` (centres unmarked) [Example I-28] the mortality at 500 g/ha [3] was 100%.

Compound `C[C@H](NC(=O)c1cc(C#N)cc(C(C)(C)C#N)c1)c1nc2cccnc2n1-c1ccc(C#N)cn1` [Example I-7] has a mortality at 100 ppm [4] of 100%, a mortality at 20 ppm [5] of 100% and a mortality at 100 g/ha [1] of 100%. It also gave a mortality at 20 mg/m2 [7] of 80 to 100% and a pest or weed control at 1 µg/cm2, 100 g/ha [9] of 90%.

For `C[C@H](NC(=O)c1cc(Cl)cc(S(C)(=O)=O)c1)c1nc2cccnc2n1-c1ccc(C#N)cn1` [Example I-5], the mortality at 100 ppm [4] was 100%, the mortality at 20 ppm [5] was 100% and the mortality at 500 g/ha [3] was 100%. It also gave a mortality at 100 g/ha [1] of 100%.

For `CC(NC(=O)c1cc(OC(F)(F)F)cc(C(C)(C)C#N)c1)c1nc2cccnc2n1-c1ccc(Cl)cn1` (centres unmarked) [Example I-14], the mortality at 100 g/ha [1] was 83%, the mortality at 20 mg/m2 [8] was 80 to 100% and the mortality at 20 mg/m2 [7] was 80 to 100%. It also gave a pest or weed control at 1 µg/cm2, 100 g/ha [9] of 100%.

`CC(NC(=O)c1cc(OC(F)(F)F)cc(C2CC2)c1)c1nc2ncccc2n1-c1ccc(Cl)cn1` (centres unmarked) [Example I-33, N-[1-[I-(5-chloro-2-pyridyl)imidazo[4,5-b]pyridin-2-yl]ethyl]-3-cyclopropyl-5-(trifluoromethoxy) benzamide] showed a mortality at 100 g/ha [1] of 100% and a mortality at 4 mg/m2 [6] of 80 to 100%.

`CC(NC(=O)c1cc(OC(F)(F)F)cc(C(C)(F)F)c1)c1nc2cccnc2n1-c1ccc(C#N)cn1` (centres unmarked) [Example I-37] gave a pest or weed control at 32 µg/disc, 100 g/ha [2] of 100% and a mortality at 100 g/ha [1] of 100%.

Work on `CC(NC(=O)c1cc(C#N)cc(OC(F)(F)F)c1)c1nc2cccnc2n1-c1ccc(C#N)cn1` (centres unmarked) [Example I-42] yielded a mortality at 100 g/ha [1] of 100%.

`CC(NC(=O)c1cc(OC(F)(F)F)cc(S(C)(=O)=O)c1)c1nc2cccnc2n1-c1ccc(Cl)cn1` (centres unmarked) [Example I-12] was tested, and the pest or weed control at 32 µg/disc, 100 g/ha [2] was 100%, the mortality at 500 g/ha [3] was 100% and the mortality at 100 g/ha [1] was 100%.
